Assay results taken from ChEMBL document CHEMBL1122618, “Total chemical synthesis and antitumor evaluation of 4-demethoxy-10,10-dimethyldaunomycin” (1984).

Test system: Mus musculus
Assay: The compound was tested intraperitoneally against P388 acute lymphocytic leukemia in mice (dose 10 mg/kg)
Type: functional
Details: route intraperitoneal

CC(=O)[C@@]1(O)C[C@H](OC2CC(N)C(O)C(C)O2)c2c(O)c3c(c(O)c2C1(C)C)C(=O)c1ccccc1C3=O (stereo partly specified)
T/C: >316
